This note sets out measurements from a melting point compilation (Tetko et al.; mined from patent text by program, amines drawn as free bases though some values may be those of a salt).

With `CC(C)n1cnc2c(NCc3cccc(O)c3O)nc(NC[C@@H](C)O)nc21`, the melting point – broadly, the temperature, or range, at which the solid turns liquid – is 182 to 183 °C.

The compound `Nc1ccc(C(=O)c2cccnc2)cc1[N+](=O)[O-]` registered a melting point of 229 to 230 °C. Take `N#Cc1ccc2c(c1)C(=O)CC1(CCCCC1)O2`: the melting point fell in the range of 92 to 93 °C. As for `CN(C)c1ccc2c(c1)Sc1cc(N(C)C)ccc1N2C(=O)c1cc(C(C)(C)C)c(O)c(C(C)(C)C)c1`, the figure is 212 to 216 °C; as for `CCOC(=O)C(=CN(C)C)C(=O)c1cc2cc(F)c(F)cc2nc1Cl`, 140 °C; as for `CCOC(=O)C(C)(C)Oc1ccc(C#CC(=O)c2ccc(Cl)cc2)cc1`, 68 to 70 °C. In the case of `COc1cc(O)nc(C(C)(C)C)n1`, the melting point was found to be 175 °C. As for `CC(C)(C)OC(=O)c1ccc(NC2CCc3cc4nc(COC(=O)C(C)(C)C)[nH]c(=O)c4cc32)cc1` (racemic), the figure is 231 °C; as for `NC(=O)c1ccc(O)c(I)c1`, 90 to 95 °C. As for `OCC1(Cc2ccccc2)CCC2(CC1)OCCO2`, the figure is 76 to 78 °C. As for `O=C1Cc2c([nH]c3ccccc23)-c2ncccc2N1`, the figure is above 330 °C; as for `CCS(=O)(=O)c1ccc(SC2SCC(OC(C)=O)C(OC(C)=O)C2OC(C)=O)cc1` (centres undefined), 136 to 137 °C. The compound `CC(C)CCCC(C)C1CCC2C3=CC=C4CC(O)C(OCCCO)C(O)C4(C)C3CCC21C` (centres undefined) displayed a melting point of 114 to 116 °C. The value for `CC1=C(C(=O)OCc2ccccc2)C(c2cccc(Cl)c2Cl)C(C(=O)OCc2ccccc2)=C(C)N1` was 131 to 132 °C; that for `COc1ccc2ccc(C(=O)CNC(=O)Cc3ccc4ccccc4c3)cc2c1` was 169 to 173 °C; that for `O=C(O)CCc1cc(OCCCCc2cc(-c3ccc(C(F)(F)F)cc3)no2)nn1-c1ccccc1` was 139 to 140 °C.

Consider `O=C(CCCCCC1(C(=O)O)CCCC1)CCCCCC1(C(=O)O)CCCC1`, for which the melting point lay in the range of 78 to 85 °C. The value for `O=S(=O)(N=C(O)c1ccc(OCCn2ccnc2)cc1)c1ccccc1` was 250 to 252 °C. Take `CC(ON(C(C)(C)CO)C(C)(C)CO)c1ccccc1` (centres undefined): the melting point is 79 to 81 °C.

With `Cc1csc2c(Br)cc3cc(C(=O)O)[nH]c3c12`, the melting point was 229 to 241 °C.

For `CC(C)c1cc(O)cc(C(C)C)c1`, the melting point lay within 51 to 52 °C. In turn, `CC1CCN(CC#CCN2C(=O)c3cccc4c3N(CC4)c3ccccc32)CC1` displayed a melting point of 157 to 158 °C. Take `COc1ccc2[nH]c3c(c2c1)C(C)CNC3=O` (centres undefined): the melting point worked out at 220 °C. As for `CCc1nnc(-c2ccc(OC)cc2)n1-c1ccccc1`, the figure is 118 °C; as for `CCCc1cc2c(c3c1[nH]c1ccc(OC)cc13)C(=O)N(CCN(C)C)C2=O`, 207 to 208 °C; as for `NS(=O)(=O)Oc1cccc(Br)c1`, 90 to 91.5 °C. As for `CC1(O)c2ccccc2C2=NCCCN21` (centres undefined), the figure is 199 to 201 °C. `CCOP(=O)(OCC)C(Sc1cc(C(C)(C)C)c(O)c(C(C)(C)C)c1)P(=O)(OCC)OCC` had a melting point of 78 to 80 °C.

`CN(C)c1cc(CO)cc(N(C)C)c1N1CCCCC1` yielded a melting point of 90 to 92 °C. The value for `CSc1ccc(-c2cc(-c3nc4ccccc4c(=O)n3-c3ccccc3)sc2N2CCOCC2)cc1` was 218 to 220 °C.

With `CCCc1nccn1NCc1cc(C(C)(C)C)c(O)c(C(C)(C)C)c1`, the melting point was in the range of 122 to 123 °C. For the compound `O=C(CCCc1ccccc1)N[C@H](Cc1ccc(F)cc1)[C@@H](O)c1ccc(C(F)(F)F)cc1` (racemic), the melting point lay within 155 to 156 °C.

For `c1ccc(C23CC(C2)C3)cc1`, the melting point lay within 64 to 65 °C. The value for `CC(C)ON=C(C(=O)O)c1ccccc1` was 59.5 °C.

As for `NCC(O)c1cc(C(N)=O)c2[nH]ccc2c1` (centres undefined), the melting point is 88 to 90 °C. As for `Clc1ccc(OC(c2ccc(Cl)cc2)C(Cl)(Cl)Cl)cc1` (centres undefined), the figure is 101 °C; as for `CCCc1c(O)cccc1Oc1ccccc1C#N`, 103 to 107 °C; as for `O=C(O)CNc1cc(Cl)ccc1[N+](=O)[O-]`, 147 to 148 °C.

In turn, `c1ccc(C(c2ccccc2)N2CCN(CCCCCCNc3ccc4ncnn4n3)CC2)cc1` displayed a melting point of 130 to 132 °C. As for `CCC1(CC)c2cc(I)ccc2-c2ccc(C=O)cc21`, the figure is 138 to 140 °C; as for `O=C(Cl)c1ccc(S(=O)(=O)NC(=O)c2ccccc2)cc1`, 180 to 182 °C; as for `CC(CN1CCOCC1)C(=O)c1ccc(C(C)(C)C)cc1` (centres undefined), 71 to 73 °C.

In the case of `CC(CCCCCOCCc1ccccc1)NCC(O)c1ccc2c(n1)COC(c1ccccc1)O2` (centres undefined), the melting point was 61 to 67 °C. Turning to `CC(C)CCOc1ccc(S(=O)(=O)C2(C(=O)O)CCN(Cc3ccccc3)CC2)cc1`, the melting point is 106 °C.

In the case of `CC(C)CCOC(=O)C(C)Oc1cc(-c2nn(C)c(C(F)(F)F)c2Cl)c(F)cc1Cl` (centres undefined), the melting point is 128 °C.

The compound `CCOC(=O)C(OS(N)(=O)=O)c1ccccc1` (centres undefined) returned a melting point of 91 to 93 °C. As for `O=C(Nc1cccc(C(F)(F)F)c1)NC1N=C(c2ccccc2F)c2ccccc2N(CC(=O)N2CC3CCC(CC3)C2)C1=O` (racemic), the figure is 226 to 227 °C; as for `CC(Cn1cc(Cl)c2ccccc21)N(O)C(N)=O` (centres undefined), 168 to 171 °C; as for `CCOC(=O)/C=C/c1ccc(OCCOC)cc1OCc1ccc(Cl)cc1Cl`, 101 °C. The value for `Cc1c2c(c(-c3ccc4c(c3)OCO4)c3c4c(ccc13)OCO4)CNC2=O` was 292 to 293 °C; that for `c1cc(CN2CCOCC2)c(CN2CCOCC2)s1` was 58 to 60 °C. As for `CN(C)c1ccc2c(c1)C(C)(C)C1(C=Cc3cc([N+](=O)[O-])ccc3S1)N2C` (centres undefined), the figure is 166 to 167 °C; as for `O=C1CCCCc2cc(I)ccc2N1`, 207 to 208 °C; as for `O=C(Nc1ccccc1)N1CCc2[nH]cc3c(=O)n(-c4ccc(Cl)cc4)nc-3c2C1`, 293 to 295 °C. For `CC(C)c1ccc(-c2ccc(-c3ccccc3)s2)s1`, the melting point was 104 to 106 °C.

With `COc1ccc(-c2cc(C(C)(O)C(F)(F)F)[nH]c2-c2ccc(OC)cc2)cc1` (centres undefined), the melting point lay in the range of 111 to 112 °C. As for `C=CCC(O)CCCCCCCCCCCCCCC` (centres undefined), the figure is 37 to 39.5 °C; as for `CCCCNCc1cn(CCC(=O)NC(C)(C)c2ccc(Cl)cc2)cn1`, 115 to 117 °C; as for `Cc1cc(=O)oc2cc(NC(=O)C3C(=O)c4ccccc4S(=O)(=O)N3C)ccc12` (centres undefined), above 285 °C. In the case of `COc1ccc2nc(NC(=O)C(CC3CCCC3)c3ccc(S(=O)(=O)CCc4ccccc4)cc3)sc2n1` (centres undefined), the melting point fell in the range of 169 to 172 °C.

Turning to `COc1ccc(NC(=O)/C(C)=C/c2ccc(C(F)(F)F)cc2)c(C(=O)O)c1`, the melting point is 207 to 208 °C. Take `CC1(C)OC(=S)Nc2ccc(-c3cc(Cl)cc(C#N)c3)cc21`: the melting point fell in the range of 249 to 251 °C.

As for `CCOCc1nc2c(N)nc3cc(OCCOCc4ccccc4)ccc3c2n1CC(C)(C)O`, the melting point is 131 to 132 °C. As for `CCOC(=O)C(C)OCc1cc2cc(Cl)ccc2n1S(=O)(=O)c1cc(OC)ccc1OC` (centres undefined), the figure is 118 to 120 °C. Turning to `Cc1ccc2c(c1)[nH]c(=O)n2CCO`, the melting point was determined as 159 °C. As for `CN(CCCCN1C(=O)C=CC1=O)c1ccccc1`, the figure is 66 to 67 °C; as for `CC(=O)C1=C(C)NC2=C(C(=O)CCC2)C1c1cccc([N+](=O)[O-])c1` (centres undefined), above 250 °C; as for `CN1C(=O)CC[C@]2(C)c3ccc(-c4nc5ccccc5[nH]4)cc3CC[C@@H]12`, 183 to 186 °C. The value for `CN(Cc1sc2c(=O)c(C(=O)NCc3ccc(Cl)cc3)cn(C)c2c1COCC[Si](C)(C)C)C[C@@H](O)c1ccco1` was 110 to 113 °C. As for `ON=Cc1ccc2c(c1)ncn2-c1cccc(N2CCCCC2)c1`, the figure is 213 to 214 °C; as for `CCCNC(=O)C(C)=Cc1ccc2c(c1)c(Cc1ccc(C(=O)NS(=O)(=O)c3ccccc3C)cc1OC)cn2C`, 189 to 191 °C.

`C=CCNc1nc(NCC=C)c2scc(C)c2n1` had a melting point of 77 to 80 °C.

`COc1ccc(N2CCOCC2)c2sc(NC(=O)C[C@H]3CC[C@@H](OC(C)=O)C3)nc12` (relative stereo) gave a melting point of 172 to 173 °C. The value for `CC(C)(C)OOC(C)(CCC(=O)N(N)C(=O)OCCOCCOC(=O)N(N)C(=O)CCC(C)(OOC(C)(C)C)OOC(C)(C)C)OOC(C)(C)C` was 45 to 50 °C. As to `CCC(=O)c1cc(C2(c3cccc(NC(=O)COC)c3)N=C(N)N(C)C2=O)cn1CC` (centres undefined), the melting point is 95 to 115 °C. Turning to `O=C(NCCc1cncn1Cc1ccc(Cl)cc1)[C@H]1CN(Cc2ccccc2)CCN1C(=O)NC1CCCCC1`, the melting point worked out at 116 °C.

`OCc1cccc(Oc2nn(Cc3ccccc3)c3ccccc23)n1` showed a melting point of 156 to 158 °C. As for `CN(C)Cc1c[nH]c2cc(Cl)ccc12`, the figure is 130 to 133 °C; as for `COCC(=O)Nc1nc(NC(=O)COC)nc(NC2CC2)n1`, 175 to 180 °C; as for `CC(C)Oc1ccc(C=O)cc1OCCN1C(=O)c2ccccc2C1=O`, 110 °C. `Cc1cc2cc(CN3CCC(CCCC(N)=O)CC3)cnc2cc1NC(=O)c1ccc(-c2ccc(F)cc2)cc1` showed a melting point of 228 °C. As for `CCN1CCN(c2nccc(Oc3ccc(NC(=O)c4cc(F)cc(N5CCOCC5)c4)c4ccccc34)n2)CC1`, the figure is 185 to 186 °C. As for `ON=Cc1ccncc1`, the figure is 180 to 182 °C.

`COc1ccc(Cl)c2c1C(=O)OC2=O` gave a melting point of 192 to 193 °C. As for `C[C@H](NC(=O)OC(C)(C)C)C(=O)C=[N+]=[N-]`, the figure is 99 to 102 °C; as for `Nc1nc2cc(-c3ccccc3)ccc2c2c1ncn2CCCN1CCCC1=O`, 201 to 204 °C; as for `CC1OC2c3cc(F)ccc3N3CCC2(CC3)O1` (centres undefined), 103 to 107 °C.

The compound `COc1cc(CCCn2cncn2)ccc1O` came in with a melting point of 97 to 98 °C.

For the compound `CCCCOc1c(CNC(=O)OC(C)(C)C)n(CC(C)C)c(=O)c2ccc(-c3cccs3)cc12`, the melting point lay in the range of 130 to 131 °C.
